Results on 61 compounds are retold here after the supplement of paper PMC10702517.

A short description of this data set: chemical recovery from spiked human plasma; higher = better extraction. Particulars: pooled human plasma.
Setting [1] is: extraction method: PES+SPE (3 d PDMS equilibration then HLB SPE).
Setting [2] is: extraction method: SPE only (HLB 96-well).
[3] abbreviates: extraction method: SPE only (HLB 96-well), PES comparison experiment.
Setting [4] is: extraction method: solvent precipitation (ACN + hexane).

± gives the standard deviation.

Regarding `Cc1cccc(C)c1NC(=O)CS(=O)(=O)O`, the chemical recovery is, setting by setting: under setting [1], 21.8 ± 8.2%; under setting [2], 5.38 ± 9.3%; under setting [3], 38.3 ± 6.6%.

As to `Clc1nc2ccccc2s1`, the chemical recovery under setting [4] was 5.44 ± 5.7%.

On to `CC(c1ccc(O)cc1)(c1ccc(O)cc1)c1ccc(O)cc1` [1,1,1-Tris(4-hydroxyphenyl)ethane], for which the chemical recovery reads like this: under setting [1], 59.9 ± 5%; under setting [2], 43.2 ± 4.1%; under setting [4], 43.3 ± 2.1%.

On to `COc1ccc(C(c2ccc(OC)cc2)C(Cl)Cl)cc1` [1,1-Dichloro-2,2-bis(4-methoxyphenyl)ethan], for which the chemical recovery worked out at 9.27 ± 2.4% under setting [2] and 33.1 ± 7.1% under setting [4].

Consider `O=c1[nH]sc2ccccc12` [1,2-Benzisothiazolinone], for which the chemical recovery came out at 7.12 ± 0.96% under setting [1], 10.7 ± 1.4% under setting [2], 1.19 ± 2.4% under setting [3] and 5.44 ± 4.6% under setting [4].

Take `Cc1ccccc1NC(=N)Nc1ccccc1C` [1,3-Di-o-tolylguanidine]: the chemical recovery is, setting by setting: under setting [1], 20.9 ± 2.6%; under setting [2], 34.2 ± 2.8%; under setting [4], 64.5 ± 1.7%.

As for `N=C(Nc1ccccc1)Nc1ccccc1` [1,3-Diphenylguanidine], the chemical recovery reads like this: under setting [1], 22.6 ± 3%; under setting [2], 34.5 ± 2.5%; under setting [3], 48.7 ± 4.8%; under setting [4], 59.5 ± 2.6%.

On to `O=C(Nc1ccccc1)Nc1ccccc1` [1,3-Diphenylurea], for which the chemical recovery stood at 65.9 ± 7.5% under setting [1], 46.9 ± 3.4% under setting [2] and 84.4 ± 7.3% under setting [4].

On to `Cc1cc2cccc(C)c2cc1C` [1,6,7-Trimethylnaphthalene], for which, under setting [2], the chemical recovery was found to be 2.3 ± 4%.

Consider `Nc1ccc2nc3c(N)cccc3nc2c1` [1,7-Diaminophenazine], for which the chemical recovery is 15 ± 1.5% under setting [1] and 52.7 ± 6.3% under setting [2].

In the case of `Cn1cnc2c1c(=O)n(CCCC(=O)O)c(=O)n2C` [1-(3-carboxypropyl)-3,7-dimethylxanthine], the chemical recovery stood at 72.3 ± 13% under setting [1], 54.3 ± 10% under setting [2] and 59.8 ± 6.9% under setting [4].

For the compound `O=C(Nc1ccccc1)NC1CCCCC1` [1-Cyclohexyl-3-phenylurea], the chemical recovery by setting is: under setting [1], 70.3 ± 10%; under setting [2], 57.4 ± 16%; under setting [4], 79.9 ± 4%.

On to `CCCCCCCCCCS(=O)(=O)O` [1-Decanesulfonic-acid], for which the chemical recovery by setting is: under setting [1], 42 ± 5.2%; under setting [2], 31.5 ± 2.9%; under setting [4], 61.5 ± 1.9%.

On to `CCCCCCCCCCCCS(=O)(=O)O` [1-Dodecanesulfonic-acid], for which the chemical recovery by setting is: under setting [2], 25.6 ± 3%; under setting [4], 52.1 ± 2.3%.

For the compound `CCn1cc[n+](C)c1` [1-Ethyl-3-methyl-imidazolium], the chemical recovery under setting [2] was found to be 0.856 ± 0.42%.

For `CCCCCCS(=O)(=O)O` [1-Hexanesulfonic-acid], the chemical recovery runs as follows: under setting [1], 31.6 ± 3.8%; under setting [2], 30.6 ± 4.2%; under setting [4], 74.2 ± 8.3%.

Under setting [2], `Cc1cccc2cc3ccccc3cc12` [1-Methylanthracene] gave a chemical recovery of 4.65 ± 1.1%.

Under setting [2], `Cc1cccc2ccccc12` [1-Methylnaphthalene] returned a chemical recovery of 2.62 ± 2%.

As to `Cc1ccc2ccc3cccc4ccc1c2c34` [1-Methylpyrene], the chemical recovery stood at 3.46 ± 0.94% under setting [2] and 34 ± 4% under setting [4].

In turn, `O=S(=O)(O)c1cccc2c(O)cccc12` [1-Naphthol-5-sulfonic acid] displayed a chemical recovery under setting [3] of 35.9 ± 5.8%.

Take `O=C(c1ccc(O)cc1O)c1ccc(O)cc1O` [2,2',4,4'-Tetrahydroxybenzophenone]: the chemical recovery by setting is: under setting [1], 50 ± 4.4%; under setting [2], 51.4 ± 4.7%.

`Oc1ccccc1-c1ccccc1O` [2,2'-Dihydroxybiphenyl]: the chemical recovery under setting [1] was found to be 46.1 ± 1.6% and the chemical recovery under setting [2] was 43.3 ± 2.8%.

Under setting [2], `Cc1cc(Cc2cc(C)cc(C(C)(C)C)c2O)c(O)c(C(C)(C)C)c1` [2,2'-Methylenebis(6-tert-butyl-p-cresol)] displayed a chemical recovery of 7.83 ± 3.9%.

As to `CCc1cc(Cc2cc(CC)cc(C(C)(C)C)c2O)c(O)c(C(C)(C)C)c1` [2,2'-Methylenebis(ethyl-6-tert-butylphenol)], the chemical recovery runs as follows: under setting [2], 3.63 ± 3.5%; under setting [4], 64.9 ± 8.7%.

Regarding `Nc1ccc(Cc2ccc(N)c(Cl)c2)cc1Cl` [2,2'-dichloro-4,4'-methylenedianiline], the chemical recovery runs as follows: under setting [1], 28.7 ± 6.4%; under setting [2], 47 ± 13%; under setting [4], 71.3 ± 5.2%.

With `Cc1c(Br)c(Br)c(C)c(Br)c1Br` [2,3,5,6-Tetrabromo-p-xylene], the chemical recovery is, setting by setting: under setting [1], 83.9 ± 17%; under setting [2], 17 ± 6.2%; under setting [4], 103 ± 16%.

`Cc1ccc(C)c(O)c1C` [2,3,6-Trimethylphenol] registered a chemical recovery under setting [2] of 0.62 ± 1.1%.

Under setting [2], `Cc1cc2ccccc2cc1C` [2,3-Dimethylnaphthalene] returned a chemical recovery of 0.0627 ± 0.11%.

Consider `C[N+](C)(C)CC1CO1` (centres undefined) [2,3-Epoxypropyltrimethylammonium], for which the chemical recovery reads like this: under setting [1], 0.728 ± 0.46%; under setting [2], 0.76 ± 0.94%.

On to `Oc1c(Br)cc(Br)cc1Br` [2,4,6-Tribromophenol], for which the chemical recovery worked out at 46.9 ± 0.63% under setting [1], 35 ± 8.7% under setting [2] and 55.2 ± 4.1% under setting [4].

Consider `O=C(O)CCCOc1ccc(Cl)cc1Cl` [2,4-DB], for which the chemical recovery is, setting by setting: under setting [1], 66.6 ± 7.5%; under setting [2], 50.7 ± 2.8%; under setting [4], 61.5 ± 6%.

As for `O=C(O)COc1ccc(Cl)cc1Cl` [2,4-Dichlorophenoxyacetic acid], the chemical recovery is, setting by setting: under setting [3], 56.3 ± 5.5%; under setting [4], 73.2 ± 6.1%.

Consider `O=C(c1ccccc1)c1ccc(O)cc1O` [2,4-Dihydroxybenzophenone], for which the chemical recovery reads like this: under setting [1], 53.8 ± 3.7%; under setting [2], 42.1 ± 2.9%; under setting [4], 59.2 ± 3.6%.

`NC(=O)c1c(Cl)cccc1Cl` [2,6-Dichlorobenzamide] yielded a chemical recovery under setting [2] of 63.3 ± 4.5%.

Turning to `CC(C)c1ccc2cc(C(C)C)ccc2c1` [2,6-Diisopropylnaphthalene], the chemical recovery under setting [3] was 16.8 ± 6.9%.

Under setting [2], `Cc1ccc2cc(C)ccc2c1` [2,6-Dimethylnaphthalene] gave a chemical recovery of 0.083 ± 0.072%.

For `Cc1cccc(C)c1N` [2,6-Xylidine], the chemical recovery came out at 7.08 ± 5% under setting [2] and 48 ± 3.5% under setting [4].

For the compound `O=S(=O)(O)c1ccc2ccc(S(=O)(=O)O)cc2c1` [2,7-Naphthalenedisulfonic acid], the chemical recovery under setting [2] was 60.6 ± 17% and the chemical recovery under setting [4] came to 72.8 ± 11%.

Regarding `Nc1ccc2nc3ccc(N)cc3nc2c1` [2,8-Diaminophenazine], the chemical recovery is, setting by setting: under setting [1], 11.8 ± 0.64%; under setting [2], 38.5 ± 14%; under setting [4], 53.2 ± 6.7%.

With `COCCOCCOCCO` [2-(2-(2-Methoxyethoxy)ethoxy)ethanol], the chemical recovery reads like this: under setting [1], 7.13 ± 2.3%; under setting [2], 6.88 ± 5.6%.

Turning to `c1ccc2cc(-c3cc4ccccc4s3)ccc2c1` [2-(2-Naphthalenyl)benzothiophene], the chemical recovery reads like this: under setting [1], 59.8 ± 2.4%; under setting [2], 0.402 ± 0.15%; under setting [4], 23.4 ± 1%.

On to `O=S(=O)(O)CCNC1CCCCC1` [2-(Cyclohexylamino)-ethansulfonic-acid], for which the chemical recovery is, setting by setting: under setting [1], 0.697 ± 0.13%; under setting [2], 2.37 ± 1.9%; under setting [4], 72.2 ± 2.7%.

Turning to `NCCN1CCNCC1` [2-(Piperazin-1-yl)ethanamine], under setting [3], the chemical recovery came to 1.9 ± 2.2%.

Take `N#CSCSc1nc2ccccc2s1` [2-(Thiocyanomethylthio)benzothiazole]: the chemical recovery by setting is: under setting [2], 44.1 ± 2.3%; under setting [4], 18.4 ± 10%.

`CC(=O)c1ccc2ccccc2c1` [2-Acetonaphthone] registered a chemical recovery under setting [3] of 80.9 ± 10%.

With `Cn1c(N)nc2ncc(-c3ccccc3)cc21` [2-Amino-1-methyl-6-phenylimidazo[4,5-b]pyridine (PhIP)], the chemical recovery reads like this: under setting [1], 38.9 ± 2.9%; under setting [2], 39.3 ± 2.8%; under setting [3], 47 ± 5.8%; under setting [4], 72.4 ± 2.8%.

For `Cn1c(N)nc2ncc(-c3ccccc3)cc21` [2-Amino-1-methyl-6-phenylimidazo[4,5-b]pyridine-(PhIP)], the chemical recovery is, setting by setting: under setting [1], 49 ± 2.1%; under setting [2], 45.2 ± 2.2%; under setting [4], 70.9 ± 3.6%.

With `Cc1cnc2ccc3c(nc(N)n3C)c2n1` [2-Amino-3,8-dimethylimidazo-[4,5-f]quinoxaline (MeIQx)], the chemical recovery is, setting by setting: under setting [1], 48.7 ± 6%; under setting [2], 49.1 ± 2.6%; under setting [4], 72.4 ± 3.3%.

With `Cn1c(N)nc2c3cccnc3ccc21` [2-Amino-3-methyl-imidazo[4,5-f]quinoline (IQ)], under setting [2], the chemical recovery was 11.1 ± 1.8%.

For the compound `Cn1c(N)nc2c3cccnc3ccc21` [2-Amino-3-methyl-imidazo[4,5-f]quinoline-(IQ)], the chemical recovery under setting [1] is 27 ± 5.9%, the chemical recovery under setting [2] turned out to be 13.8 ± 2.6% and the chemical recovery under setting [4] stood at 73.4 ± 2.7%.

In turn, `Cc1cc(C)nc(N)n1` [2-Amino-4,6-dimethylpyrimidine] returned a chemical recovery under setting [2] of 2.25 ± 2.4%.

As to `Nc1ccc2c(n1)[nH]c1ccccc12` [2-Amino-9H-pyrido[2,3-b]indole-(AalphaC)], the chemical recovery reads like this: under setting [1], 17.4 ± 2.8%; under setting [2], 32.5 ± 2.4%; under setting [4], 62.4 ± 5.3%.

As for `Nc1nc2ccccc2[nH]1` [2-Aminobenzimidazole], the chemical recovery under setting [2] worked out at 18.8 ± 4.5% and the chemical recovery under setting [4] was determined as 68.3 ± 4.5%.

The compound `CC(Cl)CN(C)C` (centres undefined) [2-Chloropropyldimethylamine] showed a chemical recovery under setting [1] of 0.712 ± 0.094% and a chemical recovery under setting [2] of 1.1 ± 0.73%.

`CCCCC(CC)COP(=O)(Oc1ccccc1)Oc1ccccc1` (centres undefined) [2-Ethylhexyldiphenylphosphate]: under setting [2], the chemical recovery was determined as 38.9 ± 8.9%.

`NNc1ccccn1` [2-Hydrazinopyridine]: the chemical recovery amounted to 0.622 ± 0.11% under setting [1] and 9.35 ± 5% under setting [2].

On to `CCNc1nc(NC(C)C)[nH]c(=O)n1` [2-Hydroxyatrazine], for which the chemical recovery runs as follows: under setting [1], 36.1 ± 4.4%; under setting [2], 29.1 ± 3.5%; under setting [3], 44.3 ± 8.2%; under setting [4], 76.5 ± 3.2%.

For `Oc1ccc2c(c1)[nH]c1ccccc12` [2-Hydroxycarbazole], the chemical recovery worked out at 52.1 ± 4.4% under setting [1] and 40.6 ± 5% under setting [2].

For `Cc1cc(=O)nc(C(C)C)[nH]1` [2-Isopropyl-6-methyl-pyrimidin-4-ol], the chemical recovery under setting [1] came to 45.2 ± 5.9%, the chemical recovery under setting [2] was 34.6 ± 4%, the chemical recovery under setting [3] turned out to be 44.3 ± 8.5% and the chemical recovery under setting [4] was 77.2 ± 3.2%.

Turning to `Cc1ccc2cc3ccccc3cc2c1` [2-Methylanthracene], the chemical recovery runs as follows: under setting [1], 51.5 ± 4.5%; under setting [2], 3.56 ± 0.86%.

Regarding `Cc1ccc2ccccc2c1` [2-Methylnaphthalene], under setting [2], the chemical recovery came out at 2.91 ± 1.5%.
